The source of these data is ChEMBL document CHEMBL1201862, “PubChem BioAssay data set” (2004).

Some test systems named below: BT-549; DMS-114; KM-20L2; M19-MEL; LXFL 529; DLD-1; XF498.
Holding throughout (assay): DTP human tumour cell line panel, 48 h

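Briefly, cells in 96-well plates were exposed to five compound concentrations for 48 h, and endpoints were estimated by linear interpolation. GI50 is the concentration that inhibits growth by half.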 Calls of active or inactive are those of the source. Cut-off read from the data, not from the text of the source: active = GI50 up to about 1.1 µM and inactive = higher. Non-standard residues stand in square brackets, D forms with d. Residues, ends and D or L forms follow the SMILES beside them. ξ: configuration not given here. *: point of attachment. Benzoyl(4-OMe) = COc1ccc(C(=O)*)cc1; NMeF = CN[C@@H](Cc1ccccc1)C(=O)O; NMeN = CN[C@@H](CC(N)=O)C(=O)O; 2Thi = N[CH](Cc1cccs1)C(=O)O; NMeV = CN[C@H](C(=O)O)C(C)C; ξNMeV = CNC(C(=O)O)C(C)C; Boc = CC(C)(C)OC(=O)*; ξNMeA = CNC(C)C(=O)O; ξV = CC(C)C(N)C(=O)O

Consider `COc1cc(COC(=O)N2CC=CC2C(=O)O)c([N+](=O)[O-])cc1OC` (stereo not given), for which the GI50 (in general, the concentration at which growth is held to half of that of the control) in the assay on BT-549 was > 100 µM (inactive). Still for that read-out and setting: the result for `CCC(C)C(NC(=O)C(Cc1cccs1)NC(=O)C(CC(C)C)NC(=O)C(CC(C)C)NC(=O)C(CCCCN)NC(=O)C(CCCNC(=N)N)NC(=O)c1ccc(OC)cc1)C(=O)NC(CC(C)C)C(N)=O` (stereo not given) ({Benzoyl(4-OMe)}-RKLL[2Thi]IL-NH2; configuration not given here) reads > 100 µM (inactive); that for `Cc1cc(/N=C/c2ccc(N(C)C)cc2)n(-c2ccccc2)n1`, 51.3 µM (inactive); that for `O/N=C/C1c2ccccc2-c2ccccc21`, 16.9 µM (inactive).

As for `O=S(=O)(Sc1ccc(Cl)cc1)c1ccc(Cl)cc1`, the GI50 was 15.1 µM (inactive) in the assay on DMS-114; 17.8 µM (inactive) in the assay with KM-20L2; 17.9 µM (inactive) with M19-MEL; 16 µM (inactive) with LXFL 529; 16.7 µM (inactive) in the assay on DLD-1; 20.2 µM (inactive) in the assay on XF498. As for `C[C@]12CCC(=O)C=C1CC[C@@H]1C2CC[C@]2(C)c3nn(-c4ccccc4)nc3CC12` (stereo not given in full), the GI50 in the assay with DMS-114, in the assay on KM-20L2, with M19-MEL, in the assay with LXFL 529, in the assay on DLD-1 and in the assay on XF498 was > 100 µM (inactive) throughout. Take `CC(C)(C)c1cc(/C=C/C(=O)CC(=O)/C=C/c2cc(C(C)(C)C)c(O)c(C(C)(C)C)c2)cc(C(C)(C)C)c1O`: the GI50 in the assay on BT-549 was > 50 µM (inactive). For `COc1cc2c(=O)cnoc2cc1O`, the GI50 in the assay on BT-549 is > 100 µM (inactive). Still for that read-out and setting: next, `CC1=CP(=O)(c2c(C(C)C)cc(C(C)C)cc2C(C)C)CCC1Cl` (stereo not given): 17.1 µM (inactive); `CS(=O)(=O)O[C@H]1CN2C[C@@H](O)[C@@H](O)[C@H]2[C@H]1CO.[B]`: > 100 µM (inactive). The same measure, in the same setting: the result for `O=C(NNC(=O)c1ccccc1O)c1cccc(Br)c1` reads > 100 µM (inactive).

On to `NS(=O)(=O)c1ccc(Nc2c3ccccc3nc3c(C(=O)NC(CO)(CO)CO)cccc23)cc1`, for which the concentration for 50% growth inhibition (GI50) in the assay with BT-549 is 0.126 µM (active).

With `N#Cc1cc(-c2nc3cc(F)ccc3s2)ccc1N`, in the assay with BT-549, the GI50 is 2.3 µM (inactive). Still for that read-out and setting: the result for `CCCCCCCCCCCC(=O)c1c(O)cc(C)oc1=O` reads 87.1 µM (inactive); that for `CC(C)(C)c1cc(C(=O)C2Cc3ccccc3C(=O)O2)cc(C(C)(C)C)c1O` (stereo not given), 10.5 µM (inactive); that for `O=c1c2cc(S(=O)(=O)Nc3ccc(Cl)cc3Cl)ccc2ncn1NS(=O)(=O)c1cccc2ccccc12`, 16.5 µM (inactive). As to `COC(=O)C(C)N(C)C(=O)[C@H](CC(N)=O)N(C)C(=O)[C@@H]1CCCN1C(=O)[C@H](C(C)C)N(C)C(=O)C(C(C)C)N(C)C(=O)[C@H](Cc1ccccc1)N(C)C(=O)C(NC(=O)OC(C)(C)C)C(C)C` (stereo not given in full) (Boc-[ξV][NMeF][ξNMeV][NMeV]P[NMeN][ξNMeA]-OMe), the GI50 was 4.65 µM (inactive) with DMS-114; 33 µM (inactive) in the assay on KM-20L2; 3.13 µM (inactive) in the assay on LXFL 529; 17.8 µM (inactive) in the assay on DLD-1; 12.1 µM (inactive) in the assay on BT-549; 15.4 µM (inactive) in the assay with XF498. As for `COc1ccc(N2C(=O)/C(=C\c3cc(OC)c(OC)c(OC)c3)S(=O)(=O)C2c2ccccc2)cc1` (stereo not given), the GI50 in the assay with BT-549 is 22 µM (inactive).

Consider `OCC(O)C(O)C(O)C(O)c1nc2cc(Cl)ccc2[nH]1` (stereo not given), for which, in the assay with BT-549, the GI50 was > 100 µM (inactive).

On to `CCOP(=O)(CCCC(O)CNc1cc(Cl)nc(N)n1)OCC` (stereo not given), for which the GI50 in the assay with BT-549 is > 100 µM (inactive).

`CCN1CC2(C)CC[C@@H](OC)C34[C@@H]2[C@H](OC(C)=O)C2(OCO[C@@]25C[C@H](OC)C2C[C@]3(O)[C@@H]5[C@H]2O)[C@H]14`: the GI50 with DMS-114, in the assay on KM-20L2, in the assay on M19-MEL, in the assay with LXFL 529 and in the assay with DLD-1 was > 100 µM (inactive) in each case. `NC(=O)c1ccc(NS(=O)(=O)c2ccc(N)cc2)nc1`: the GI50 in the assay with BT-549 is > 100 µM (inactive).

On to `CC1=C(O)C(=O)C2C(=O)C1C(C)C2c1ccccc1` (stereo not given), for which the GI50 with M19-MEL, in the assay with LXFL 529, in the assay with DLD-1 and in the assay on XF498 was > 100 µM (inactive) throughout. As to `O=C(O)C1CC(O)CN1` (stereo not given), the GI50 with BT-549 is > 100 µM (inactive).

`O=C1c2ccccc2C(=O)N1CCN(CCN1C(=O)c2ccccc2C1=O)Cc1ccccc1`: the GI50 in the assay with DMS-114, with KM-20L2, in the assay with M19-MEL, in the assay on LXFL 529, in the assay on DLD-1 and in the assay with XF498 was > 100 µM (inactive) throughout.

Regarding `NC1=NC(=O)[C@H](CSCc2ccccc2)N1C(=O)OCc1ccccc1`, the GI50 in the assay with BT-549 was > 100 µM (inactive).

In the case of `C/C=C/COc1cc(NC(=S)OC(C)C)ccc1Cl.C/C=C\COc1cc(NC(=S)OC(C)C)ccc1Cl`, the GI50 in the assay on BT-549 is 19.6 µM (inactive). Turning to `CC(=O)NC(Cc1c[nH]cn1)C(=O)N1CCCC1C(N)=O` (stereo not given), the GI50 with BT-549 was > 100 µM (inactive). The same measure, in the same setting: next, `COC(=O)[C@]1(C)CCCC2(C)C3=C(CCC21)CC1(CC3)SCCS1` (stereo not given in full): > 10 µM (inactive); `O=c1oc2cc(/N=C/c3ccc4c(c3)OCO4)ccc2c2ccccc12`: > 100 µM (inactive). Take `COC1OC(C)C(NC(=O)OCC(Cl)(Cl)Cl)C2OC(C)(C)OC12` (stereo not given): the GI50 in the assay with BT-549 is > 100 µM (inactive). Same read-out and setting: the result for `CC(=O)OC12c3ccccc3C(c3ccccc31)C1C(=O)N(c3ccccc3O)C(=O)C12` (stereo not given) reads > 100 µM (inactive); that for `CN(C)c1ccc(C(c2ccc(N(C)C)cc2)c2ccc([N+](=O)[O-])cc2)cc1`, > 100 µM (inactive).

With `CCCc1cc(=O)oc2c3c(c4c(c12)OC(C)(C)C=C4)O[C@@H](C)[C@H](C)C3=O`, the GI50 with BT-549 is 13.7 µM (inactive).

With `N=C(N)c1ccc(/N=N\c2c(O)ccc3cc4c(/N=N\c5ccc(C(=N)N)cc5)c(O)ccc4cc23)cc1`, the GI50 in the assay on BT-549 is > 100 µM (inactive). Still for that read-out and setting: next, `CSc1nc(Nc2ccccc2Cl)c2c(N)nn(C)c2n1`: > 100 µM (inactive); `O=C1C(/C=N/CCc2c[nH]c3ccccc23)C(C(F)(F)F)=NN1c1nc2ccccc2s1` (stereo not given): 25.3 µM (inactive); `Cc1[nH]c(-c2ccccc2)c(-c2ccc(Cl)cc2)c1C(=O)ONC(=O)c1ccccc1`: 2.56 µM (inactive).

Take `CCCNC(=O)Nc1ccc2c(c1)Cc1cc(N(CCCl)CCCl)ccc1-2`: the GI50 with BT-549 was 22 µM (inactive). Same read-out and setting: the result for `NC(=O)Nc1c(Cl)cc(S(N)(=O)=O)cc1Cl` reads > 100 µM (inactive). The same measure, in the same setting: next, `O=c1c2ccccc2[nH]c2c(Cl)cc(Cl)c(N3CCCCC3)c12`: 43.5 µM (inactive); `CN(C)/C=N\c1nncc2[nH]cnc12`: > 100 µM (inactive); `N#Cc1c(-c2ccccc2)c(C#N)c(=S)n(C2OCC(O)C(O)C2O)c1N` (stereo not given): > 100 µM (inactive). Still for that read-out and setting: the result for `CC(C)CNc1nc(N)nc(O)c1NC=O` reads > 100 µM (inactive); that for `N#C/C=C1\C=CC(O)C(O)C1OC1OC(CO)C(O)C(O)C1O` (stereo not given), > 100 µM (inactive); that for `CCCCC(=C=C1CCCCC1O)C1CCCN1C(=O)OC(C)(C)C` (stereo not given), 19.3 µM (inactive).

Turning to `COC(=O)C1CCC(=O)N1C(c1ccc(OC)cc1)c1ccc(OC)cc1` (stereo not given), in the assay with BT-549, the GI50 is > 100 µM (inactive).

`C[C@H]1[C@H](C)CC[C@]2(C(=O)OC3OC(CO)C(O)C(O)C3O)CC[C@]3(C)C(=CC[C@@H]4[C@@]5(C)C[C@H]6OC(=O)c7cc(O)c(O)c(O)c7-c7c(cc(O)c(O)c7O)C(=O)O[C@@H]6C(CO)(CO)[C@@H]5CC[C@]43C)[C@H]12` (stereo not given in full): in the assay with BT-549, the GI50 was > 100 µM (inactive).
